We go through 1 compound from patent US20210386705A1, “APPLICATION OF CHIGLITAZAR AND RELATED COMPOUNDS THEREOF” (SHENZHEN CHIPSCREEN BIOSCIENCES CO., LTD., priority 2018, published 2021).

One test addresses T1, PPARα (Homo sapiens, UniProt Q07869).
T1 construct: expressed in transfected cells; host or cells: human hepatocyte cell line L-02
T1 sequence (Q07869 1-468): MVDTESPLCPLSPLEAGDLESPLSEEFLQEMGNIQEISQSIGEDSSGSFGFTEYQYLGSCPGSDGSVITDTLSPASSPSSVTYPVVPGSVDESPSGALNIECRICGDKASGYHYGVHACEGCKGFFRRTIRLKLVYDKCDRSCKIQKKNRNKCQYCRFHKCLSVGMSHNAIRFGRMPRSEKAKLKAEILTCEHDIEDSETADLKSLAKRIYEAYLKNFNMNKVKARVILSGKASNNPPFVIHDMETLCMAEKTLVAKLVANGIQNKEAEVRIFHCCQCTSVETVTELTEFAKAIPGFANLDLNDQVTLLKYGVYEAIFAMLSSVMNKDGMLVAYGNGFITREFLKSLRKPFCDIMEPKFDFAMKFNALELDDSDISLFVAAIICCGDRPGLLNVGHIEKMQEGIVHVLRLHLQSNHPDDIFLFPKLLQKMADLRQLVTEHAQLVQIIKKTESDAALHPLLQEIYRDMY
Nature of the test: PPAR reporter gene model in L-02 cells, PPARα. The test is classed as cell-based. The settings on record: luciferase reporter, 24 hours drug, read-out: Half-maximal activation concentration of reporter gene AC50, PPARα. The method, then:
The PPAR reporter gene model comprises three subtypes of expression plasmids, RXR expression plasmid, plasmid with luciferase reporter gene, and GFP expression plasmid as an external reference. The human hepatocyte cell line L-02 cells were seeded into 96-well plates at the density of 15,000 cells/well with about 50% plating rate, followed by culturing for 24 hours at 37° C. […] The fluorescence intensity (at wavelength 485-527 nm) of green fluorescent protein (GFP) in each well was firstly detected as an internal standard by a fluorescence detector, and then 30 μL of luciferase substrates (Promega, E151A) were added to each well. After slightly shaking to mix well, the […] were detected. The relative reporter gene activation intensity was obtained by the ratio of the fluorescence detection signal of the drugs to be tested to that of the solvent control, with both the signals normalized to the internal standard GFP signal. The half-maximal activation (AC50) of the drugs to be tested was calculated with the activity at various concentrations (shown in Table 1).

Test [1] has as its system connective tissue growth factor (CTGF). Description: TGF-β1-activated hepatic stellate cells, CTGF gene expression (qPCR). It is filed as cell-based, human. The settings on record: TGF-β1 stimulation, 24 hours; FIG. 4. The method, then: Human primary hepatic stellate cells were seeded into 6-well plates with complete growth media (Stellate Cell Medium) for 24 hours, and then the culture media were replaced by fresh media (free of serum and growth factors) containing TGF-β1 and the compound to be tested (sodium chiglitazar) or the reference compound PPARγ/α dual agonist pioglitazone or PPARα/δ dual agonist GFT505 (both purchased from Selleck), and the cells were cultured for 24 hours. The total RNAs of the samples were extracted, and reverse transcription reaction was performed. Thereafter, a conventional PCR amplification kit (FastStart Universal SYBR@ Green Master (ROX), Roche) was used for further detection, where the PCR primers were designed with reference to the NCBI standard mRNA sequence of the target genes (Table 2). PCR reaction and detection were carried out on the ABI StepOnePlus real-time quantitative PCR instrument.
By calculating the relative amount of transcripts was calculate by “Delta-Delta CT method” (Livak et al. Methods 2001), and using ACTB as the housekeeping gene for normalization and the average data of untreated human hepatic stellate cells as a reference control, the relative change folds of gene expression were obtained (FIG. 4).

`O=C(c1ccc(F)cc1)c1ccccc1N[C@@H](Cc1ccc(OCCn2c3ccccc3c3ccccc32)cc1)C(=O)[O-].[Na+]` [sodium chiglitazar]: on PPARα, the AC50 is 1100 nM. In addition, the “Effect on expression of connective tissue growth factor” value in test [1] is “significant and dose-dependent inhibitory effect”.
